SMILES strings stand for the structures. Converted amounts (≈) assume the structure as drawn. Where a SMILES comes first, the peptide text is derived from it.

The conditions of one data set: 22 °C.
As a reminder, the solubility is the concentration that dissolves in the medium under given conditions. In turn, `O=C1CCCCCCCCN1` returned a solubility of 84.4 mM (≈ 13100 µg/mL).

In turn, `CCOP(=O)(Cc1ccc(-c2nc3ccccc3s2)cc1)OCC` yielded a solubility of 0.0996 mM (≈ 36 µg/mL).

The same data set, now with this note: 23 °C.
The molecule `CC(C)C(=O)Oc1ccc([N+](=O)[O-])cc1` came in with a solubility of 0.11 mM (≈ 23 µg/mL).

Take `NC(=S)NNC(N)=S`: the solubility stood at 16 mM (≈ 2400 µg/mL).

`CCC(C(=O)O)C(CC)C(=O)O` (centres undefined) yielded a solubility of 69.5 mM (≈ 12100 µg/mL).

Staying with this data set, now noted: 25 °C.
In the case of `c1ccc(-c2cccnc2)nc1`, the solubility came to 256 mM (≈ 40000 µg/mL).

In turn, `CCCCOC(=O)C(C)OC(=O)C(C)O` (centres undefined) came in with a solubility of 42.2 mM (≈ 9200 µg/mL).

Turning to `O=[N+]([O-])c1cc([N+](=O)[O-])c(-c2ccccc2)cc1O`, the solubility came to 0.0346 mM (≈ 9 µg/mL).

The molecule `COP(=S)(OC)SSP(=S)(OC)OC` gave a solubility of 0.04 mM (≈ 12.6 µg/mL).

As to `CC(C)C[C@H](N)C(=O)N[C@H](CCC(N)=O)C(=O)O`, the solubility amounted to 27 mM (≈ 7000 µg/mL).

Take `O=C(O)Cc1cc(O)ccc1O`: the solubility stood at 5050 mM (≈ 850000 µg/mL).

`CCCCOP(=O)(CCCC)OCCCC` had a solubility of 2 mM (≈ 500 µg/mL).

Regarding `CCC(CC)(CC(=O)O)C(=O)O`, the solubility was determined as 160 mM (≈ 27900 µg/mL).

Turning to `CCC1(C)OC(=O)NC1=O` (centres undefined), the solubility came to 1050 mM (≈ 150000 µg/mL).

`CCN(C(N)=O)c1ccccc1C` had a solubility of 617 mM (≈ 110000 µg/mL).

In turn, `Cc1c(Cl)c(O)c(Cl)c(Cl)c1Cl` yielded a solubility of 0.025 mM (≈ 6.15 µg/mL).

Molecule `Cc1ccccc1N(C)C(N)=O` came in with a solubility of 395 mM (≈ 64900 µg/mL). Compared with the last molecule, the solubility is about 16000-fold higher.

For the molecule `CC1CCC(=NO)C(=NO)C1` (centres undefined), the solubility worked out at 21.8 mM (≈ 3400 µg/mL).

In turn, `CCOP(=O)(OCC)C(Cl)(Cl)Cl` showed a solubility of 17.6 mM (≈ 4500 µg/mL).

`CCCCOP(=O)(OC)OCCCC` came in with a solubility of 31.7 mM (≈ 7100 µg/mL).

Molecule `CC(=O)NC(=O)NC(C)=O` displayed a solubility of 486 mM (≈ 70000 µg/mL).

`CCOC(=S)SC(C)C(=O)O` (centres undefined) displayed a solubility of 35.6 mM (≈ 6910 µg/mL).

`O=C(O)CCC(=O)c1ccc2ccccc2c1` came in with a solubility of 0.14 mM (≈ 32 µg/mL). This solubility is about 250-fold lower than that of the molecule before.

The molecule `CC(C)CCCCCO` displayed a solubility of 4.97 mM (≈ 647 µg/mL).

`O=c1ccc(Br)cc(Br)c1O` had a solubility of 0.314 mM (≈ 88 µg/mL).

With `CCC(C)[C@@H](NC(C)=O)C(=O)O` (mixture of isomers), the solubility was determined as 177 mM.

With `O=c1ccc(Br)ccc1O`, the solubility amounted to 0.274 mM (≈ 55 µg/mL).

On to `CCCCCCOC(=O)CCOCC`, for which the solubility worked out at 1.48 mM (≈ 300 µg/mL).

In turn, `CCCCCCOC(=O)c1cccnc1` registered a solubility of 2.22 mM (≈ 460 µg/mL).

Turning to `CCC(O)CCC(C)C` (centres undefined), the solubility amounted to 11.8 mM (≈ 1540 µg/mL).

Regarding `CCCCCNC(=O)C(C)O` (centres undefined), the solubility was found to be 414 mM (≈ 66000 µg/mL).

`CCCC(C)CC(C)O` (centres undefined) displayed a solubility of 13.2 mM (≈ 1730 µg/mL). Against the preceding molecule, the solubility is about 31-fold lower.

Regarding `CC(=O)OOC(=O)c1ccccc1`, the solubility came to 3.55 mM (≈ 639 µg/mL).

Take `CC(=O)c1cc(O)c(O)c(O)c1`: the solubility came to 33.8 mM (≈ 5680 µg/mL).

In the case of `CCCCCCCCNC(=O)c1cccnc1`, the solubility was found to be 0.982 mM (≈ 230 µg/mL).

Take `CCOc1ccc(N(C(C)=O)C(C)=O)cc1`: the solubility is 11.3 mM (≈ 2500 µg/mL).

As to `CCC1OC(=O)c2ccccc21` (centres undefined), the solubility was found to be 17.9 mM (≈ 2900 µg/mL).

Take `Oc1ccc(C2CCCCC2)cc1`: the solubility was 0.34 mM (≈ 60 µg/mL).

`Cc1cc(Cl)cc(Cl)c1O`: the solubility turned out to be 9.04 mM (≈ 1600 µg/mL).

The molecule `CC(CCC(=O)O)NC(=O)c1ccccc1` (centres undefined) showed a solubility of 20.3 mM (≈ 4500 µg/mL).

In the case of `CC(=O)OCC(C)OC(C)=O` (centres undefined), the solubility came out at 624 mM (≈ 100000 µg/mL).

In turn, `CC(C)C[C@H](N)C(=O)N[C@@H](CCC(=O)O)C(=O)O` (H-Leu-Glu-OH) showed a solubility of 127 mM (≈ 33000 µg/mL).

`O=C(O)CCCCc1ccccc1` displayed a solubility of 3.42 mM (≈ 610 µg/mL).

Take `O=C(O)CCC[Se][Se]CCCC(=O)O`: the solubility was 5.66 mM (≈ 1880 µg/mL).

In turn, `CCCCCCC(C/C=C\CCCCCCCC(=O)O)OS(=O)(=O)O` (centres undefined) registered a solubility of 264 mM (≈ 100000 µg/mL).

Turning to `O=C(O)C(S)CCC(S)C(=O)O` (centres undefined), the solubility was determined as 3.34 mM (≈ 703 µg/mL).

On to `CCCCCCCCCC(C(=O)O)C(=O)O`, for which the solubility worked out at 0.499 mM (≈ 115 µg/mL).

The molecule `COC1CC1` displayed a solubility of 763 mM (≈ 55000 µg/mL).

`CCOC(=S)SC(CC(=O)O)C(=O)O` (centres undefined) had a solubility of 101 mM (≈ 24100 µg/mL).

`O=C(O)CNC(=S)SCC(=O)O` registered a solubility of 50 mM (≈ 10500 µg/mL).

Regarding `CCC(CC)COC(=O)NS(N)(=O)=O`, the solubility worked out at 17.8 mM (≈ 4000 µg/mL).

`Cc1cccc(Cl)c1O` gave a solubility of 168 mM (≈ 24000 µg/mL).

In turn, `CCOc1ccccc1C=CC(=O)[O-]` came in with a solubility of 1.19 mM.

`CCC(=NO)C(CC)=NO`: the solubility stood at 2.8 mM (≈ 404 µg/mL).

Consider `CCC(CC)(C(=O)O)C(CC)(CC)C(=O)O`, for which the solubility turned out to be 1.09 mM (≈ 250 µg/mL).

`COc1c(O)ccc(C=O)c1C` returned a solubility of 42.1 mM (≈ 7000 µg/mL).

Molecule `C[Si](C)(C)CCN` displayed a solubility of 15.6 mM (≈ 1830 µg/mL).

Consider `CCCC(=O)Oc1ccc([N+](=O)[O-])cc1`, for which the solubility turned out to be 0.115 mM (≈ 24 µg/mL).

The data set is the same for the next values; noted with them: 26 °C.
`N#CCCNC(CCC(=O)O)C(=O)O` (centres undefined): the solubility was 49.9 mM (≈ 10000 µg/mL).

Molecule `CC(C(=O)O)C(C)(C)CCC(=O)O` (centres undefined) registered a solubility of 29.8 mM (≈ 5600 µg/mL).

The same data set, now with this note: 27 °C.
For `CCC(C)(C)NC(N)=O`, the solubility amounted to 96.8 mM (≈ 12600 µg/mL). This counts as millimolar.

In the case of `c1ccc2c(c1)-c1cccc3cc4c(ccc5ccccc54)c-2c13`, the solubility was found to be 3.31e-06 mM (≈ 0.001 µg/mL).

The same data set, now with this note: 30 °C.
For the molecule `O=C(O)Cc1c[nH]c(=O)[nH]c1=O`, the solubility was 23.5 mM (≈ 4000 µg/mL).

Turning to `O=C(O)CCCCCc1ccccc1`, the solubility amounted to 2.5 mM (≈ 480 µg/mL). Against the preceding molecule, the solubility is about 9.4-fold lower.

The molecule `CS(=O)(=O)NS(C)(=O)=O` gave a solubility of 1100 mM (≈ 190000 µg/mL).

The molecule `O=S(=O)(CCCl)CCS(=O)(=O)CCCl` displayed a solubility of 35.6 mM (≈ 10100 µg/mL).

Turning to `CCCCCCCCS(=O)(=O)NS(=O)(=O)CCCCCCCC`, the solubility was 0.122 mM (≈ 45 µg/mL). This solubility lies about 290-fold lower than the previous one.

As for `CCCn1c(=O)c2c(ncn2C)n(C)c1=O`, the solubility stood at 61.9 mM (≈ 13800 µg/mL).

The molecule `COC(=O)CNC(=O)c1ccccc1` registered a solubility of 88 mM (≈ 17000 µg/mL).

The values above are taken from the OPERA property sets (Mansouri et al. 2018).
